In brackets after ≈: the same amount, converted by molar mass.
Assays:
[1] = system: Escherichia coli; assay: Antibacterial activity against Escherichia coli CCM 3954 after 24 hrs by microdilution method; format: functional; details: CCM 3954, 24 h
[2] = system: Pseudomonas aeruginosa; assay: Antibacterial activity against Pseudomonas aeruginosa CCM 3955 after 24 hrs by microdilution method; format: functional; details: CCM 3955, 24 h
[3] = system: Enterococcus faecalis; assay: Antibacterial activity against Enterococcus faecalis CCM 4224 after 24 hrs by microdilution method; format: functional; details: CCM 4224, 24 h
[4] = system: Staphylococcus aureus; assay: Antibacterial activity against Staphylococcus aureus CCM 4223 after 24 hrs by microdilution method; format: functional; details: CCM 4223, 24 h
[5] = system: Bacillus subtilis; assay: Antibacterial activity against Bacillus subtilis after 24 hrs by microdilution method; format: functional
[6] = system: Streptococcus agalactiae; assay: Antibacterial activity against Streptococcus agalactiae after 24 hrs by microdilution method; format: functional
[7] = system: Escherichia coli; assay: Antibacterial activity against Escherichia coli 16702 after 24 hrs by microdilution method; format: functional; details: Escherichia coli, 16702, 24 h
[8] = system: Pseudomonas aeruginosa; assay: Antibacterial activity against Pseudomonas aeruginosa 16575 after 24 hrs by microdilution method; format: functional; details: Pseudomonas aeruginosa, 16575, 24 h
[9] = system: Staphylococcus aureus; assay: Antibacterial activity against methicillin-resistant Staphylococcus aureus 4591 clinical isolates after 24 hrs by microdilution method; format: functional; details: Staphylococcus aureus, 4591, 24 h
[10] = system: Staphylococcus haemolyticus; assay: Antibacterial activity against fluoroquinolne-resistant Staphylococcus haemolyticus 16568 after 24 hrs by microdilution method; format: functional; details: Staphylococcus haemolyticus, 16568, 24 h
[11] = system: Staphylococcus epidermidis; assay: Antibacterial activity against Staphylococcus epidermidis 8700/B after 24 hrs by microdilution method; format: functional
[12] = system: Enterococcus faecium; assay: Antibacterial activity against vancomycin-resistant Enterococcus faecium 419/ana clinical isolates after 24 hrs by microdilution method; format: functional
[13] = system: Salmonella enteritidis; assay: Antibacterial activity against Salmonella enteritidis S2-25 after 24 hrs by microdilution method; format: functional, Salmonella enterica subsp. enterica serovar Enteritidis; details: Salmonella enterica, S2-25, 24 h
[14] = system: Acinetobacter baumannii; assay: Antibacterial activity against Acinetobacter baumannii A3-08 after 24 hrs by microdilution method; format: functional; details: A3-08, 24 h
[15] = system: Stenotrophomonas maltophilia; assay: Antibacterial activity against Stenotrophomonas maltophilia S2-23 after 24 hrs by microdilution method; format: functional; details: S2-23, 24 h
[16] = system: Burkholderia multivorans; assay: Antibacterial activity against Burkholderia multivorans after 24 hrs by microdilution method; format: functional

Row | Compound | MIC [1] [µg/mL] | MIC [2] [µg/mL] | MIC [3] [µg/mL] | MIC [4] [µg/mL] | MIC [5] [µg/mL] | MIC [6] [µg/mL] | MIC [7] [µg/mL] | MIC [8] [µg/mL] | MIC [9] [µg/mL] | MIC [10] [µg/mL] | MIC [11] [µg/mL] | MIC [12] [µg/mL] | MIC [13] [µg/mL] | MIC [14] [µg/mL] | MIC [15] [µg/mL] | MIC [16] [µg/mL]
1 | CCCCCCCCCCCCCCCOP(=O)(CCN(CCNC(=N)N)CCNC(=N)N)OC[C@H]1O[C@@H](n2ccc(=O)[nH]c2=O)[C@H](O)[C@@H]1O (some centres not stated) | 3.13 (≈ 4.28 µM) | 6.25 (≈ 8.54 µM) | 25 (≈ 34.2 µM) | 6.25 (≈ 8.54 µM) | 3.13 (≈ 4.28 µM) | 3.13 (≈ 4.28 µM) | 3.13 (≈ 4.28 µM) | 6.25 (≈ 8.54 µM) | 6.25 (≈ 8.54 µM) | 6.25 (≈ 8.54 µM) | 3.13 (≈ 4.28 µM) | 50 (≈ 68.3 µM) | 3.13 (≈ 4.28 µM) | 6.25 (≈ 8.54 µM) | 3.13 (≈ 4.28 µM) | 12.5 (≈ 17.1 µM)
2 | CCCCCCCCCCCCCOP(=O)(CCN(CCCNC(=N)N)CCCNC(=N)N)OC[C@H]1O[C@@H](n2ccc(=O)[nH]c2=O)[C@H](O)[C@@H]1O (some centres not stated) | 12.5 (≈ 17.1 µM) | 3.13 (≈ 4.28 µM) | 25 (≈ 34.2 µM) | 6.25 (≈ 8.54 µM) | 1.56 (≈ 2.13 µM) | 3.13 (≈ 4.28 µM) | 12.5 (≈ 17.1 µM) | 25 (≈ 34.2 µM) | 12.5 (≈ 17.1 µM) | 3.13 (≈ 4.28 µM) | 6.25 (≈ 8.54 µM) | 50 (≈ 68.3 µM) | 12.5 (≈ 17.1 µM) | 25 (≈ 34.2 µM) | 25 (≈ 34.2 µM) | 50 (≈ 68.3 µM)
3 | CCCCCCCCCCCCCCCCOP(=O)(CCN(CCCNC(=N)N)CCCNC(=N)N)OC[C@H]1O[C@@H](n2ccc(=O)[nH]c2=O)[C@H](O)[C@@H]1O (some centres not stated) | 1.56 (≈ 2.02 µM) | 3.13 (≈ 4.04 µM) | 6.25 (≈ 8.08 µM) | 3.13 (≈ 4.04 µM) | 0.78 (≈ 1.01 µM) | 1.56 (≈ 2.02 µM) | 1.56 (≈ 2.02 µM) | 3.13 (≈ 4.04 µM) | 3.13 (≈ 4.04 µM) | 1.56 (≈ 2.02 µM) | 1.56 (≈ 2.02 µM) | 25 (≈ 32.3 µM) | 1.56 (≈ 2.02 µM) | 3.13 (≈ 4.04 µM) | 1.56 (≈ 2.02 µM) | 50 (≈ 64.6 µM)
4 | CCCCCCCCCCCCCCOP(=O)(CCN1CCC(N)C1)OC[C@H]1O[C@@H](n2ccc(=O)[nH]c2=O)[C@H](O)[C@@H]1O (some centres not stated) | 3.13 (≈ 5.08 µM) | 3.13 (≈ 5.08 µM) | 6.25 (≈ 10.1 µM) | 12.5 (≈ 20.3 µM) | 1.56 (≈ 2.53 µM) | 3.13 (≈ 5.08 µM) | 3.13 (≈ 5.08 µM) | 3.13 (≈ 5.08 µM) | 25 (≈ 40.5 µM) | 6.25 (≈ 10.1 µM) | 3.13 (≈ 5.08 µM) | 50 (≈ 81.1 µM) | 6.25 (≈ 10.1 µM) | 6.25 (≈ 10.1 µM) | 12.5 (≈ 20.3 µM) | 50 (≈ 81.1 µM)
5 | CCCCCCCCCCCCCCCOP(=O)(CCN1CCC(N)C1)OC[C@H]1O[C@@H](n2ccc(=O)[nH]c2=O)[C@H](O)[C@@H]1O (some centres not stated) | 6.25 (≈ 9.91 µM) | 12.5 (≈ 19.8 µM) | 6.25 (≈ 9.91 µM) | 6.25 (≈ 9.91 µM) | 3.13 (≈ 4.96 µM) | 3.13 (≈ 4.96 µM) | 6.25 (≈ 9.91 µM) | 12.5 (≈ 19.8 µM) | 6.25 (≈ 9.91 µM) | 6.25 (≈ 9.91 µM) | 6.25 (≈ 9.91 µM) | 25 (≈ 39.6 µM) | 6.25 (≈ 9.91 µM) | 6.25 (≈ 9.91 µM) | 6.25 (≈ 9.91 µM) | 50 (≈ 79.3 µM)
6 | CCCCCCCCCCCCCOP(=O)(CCN(CCCN)CCCN)OC[C@H]1O[C@@H](n2ccc(=O)[nH]c2=O)[C@H](O)[C@@H]1O (some centres not stated) | 25 (≈ 38.6 µM) | 3.13 (≈ 4.83 µM) | 50 (≈ 77.2 µM) | 12.5 (≈ 19.3 µM) | 3.13 (≈ 4.83 µM) | 6.25 (≈ 9.65 µM) | 50 (≈ 77.2 µM) | 25 (≈ 38.6 µM) | 25 (≈ 38.6 µM) | 6.25 (≈ 9.65 µM) | 12.5 (≈ 19.3 µM) | 100 (≈ 154 µM) | 50 (≈ 77.2 µM) | 50 (≈ 77.2 µM) | 50 (≈ 77.2 µM) | 50 (≈ 77.2 µM)
7 | CCCCCCCCCCCCCCCCOP(=O)(CCN(CCNC(=N)N)CCNC(=N)N)OC[C@H]1O[C@@H](n2ccc(=O)[nH]c2=O)[C@H](O)[C@@H]1O (some centres not stated) | 3.13 (≈ 4.2 µM) | 6.25 (≈ 8.38 µM) | 25 (≈ 33.5 µM) | 6.25 (≈ 8.38 µM) | 3.13 (≈ 4.2 µM) | 3.13 (≈ 4.2 µM) | 3.13 (≈ 4.2 µM) | 6.25 (≈ 8.38 µM) | 6.25 (≈ 8.38 µM) | 6.25 (≈ 8.38 µM) | 3.13 (≈ 4.2 µM) | 50 (≈ 67 µM) | 3.13 (≈ 4.2 µM) | 6.25 (≈ 8.38 µM) | 3.13 (≈ 4.2 µM) | 25 (≈ 33.5 µM)

From ChEMBL document CHEMBL4038308, “Lipophosphonoxins II: Design, Synthesis, and Properties of Novel Broad Spectrum Antibacterial Agents” (J Med Chem, 2017)
